Reference: patent US8540967B2, “Porphyrazine optical and dual optical/MR contrast and therapeutic agents” (Hoffman/Barrett, L.L.C., priority 2008, dated 2013)

Legend:
[1] = system: WI38 VA13 non-tumorigenic cells; test: MTT assay, non-tumorigenic cells; assay type: cell-based; settings: 50 μM
Method: (§1) The MTT test was performed using the procedure disclosed in S. Lee et al., Metal-Based Drugs (2008), pages 391-418.

A549 tumor cells = test: MTT assay, tumor cells; assay type: cell-based; settings: 50 μM
Method: as §1

[2] = system: WI38 VA13 non-tumorigenic cells; test: Confocal NIR fluorescence microscopy of cellular uptake, non-tumorigenic cells; assay type: cell-based; settings: confocal images; 50 μM
Method: (§2) Cellular uptake monitored by confocal fluorescence microscopy is dependent on the pz's overall amphiphilicity, and qualitative analysis indicates preferential uptake into tumor cells (e.g., A549) over non-tumorigenic cells (e.g., WI38 VA13).
as §1
Therefore, compound 270, a pz having a single appended Gd^3+, was synthesized.

[3] = system: A549 lung carcinoma cells; test: Time course studies of pz accumulation and cell viability; assay type: cell-based
Method: Time course studies also were performed using compounds 241, 243, 244, 246, 247, 249, 254, and 255 using A549 lung carcinoma cells and W138 VA13 non-tumorigenic cells. The studies confirmed accumulation of a present pz in tumor cells and a decrease in tumor cell viability.

[4] = system: PC3-EGFP (human prostate tumor cells stably expressing GFP) tibia tumors; test: Biodistribution by NIR fluorescence imaging in mice with tibia tumors; assay type: in vivo, mouse
Method: In one experiment, male FVB/n5 Rag-1−/− mice were injected with […] PC3-EGFP (human prostate tumor cells stably expressing GFP) in the tibia four weeks prior to imaging with pzs. Prior to imaging, the mice were anesthetized with 4% isoflurane and injected with 20 nmol of compound 247 (150 μL, 7.5% DMSO) intravenously via the tail vein. Fluorescent images were acquired immediately and after 4, 24, and 42 hours. […] GFP images were acquired using excitation wavelengths of 465 nm and fluorescence was detected at 535 nm. X-ray images were acquired for anatomical co-registration.
The mice subsequently were euthanized, legs were excised, and images were acquired without the surrounding skin and muscle.

[5] = system: MDA-MB-231-RFP subcutaneous tumors; test: NIR fluorescence imaging of subcutaneous tumors in female SCID mice; assay type: in vivo, mouse
Source text: In a second experiment to verify that compound 247 robustly and reproducibly localizes in tumors of more than one tissue origin, female SCID mice were subcutaneously injected with MDA-MB-231-RFP cells stably expressing Red Fluorescent Protein (RFP). This approach provides excellent confirming information because (a) palpable subcutaneous tumors are easily identified prior to imaging as opposed to bone tumors which are difficult to detect non-invasively; (b) RFP-expressing tumors are visible through the skin as opposed to GFP tumors, which require removal of skin prior to imaging; (c) pz localization in the tumor is visible during non-invasive whole animal imaging; and (d) tumors are easily harvested, fixed, and processed for histochemical and biochemical analyses. Five mice were dosed with 20 nmol of compound 247 in 7.5% DMSO, administered intravenously. The […] wavelength used for RFP excitation was 535 nm with emission detected using a 565-615 nm bandpass filter. Compound 247 was excited using a 625 nm bandpass and emission detected at 700 nm. […] Therefore, there is no penetration of undesired signal during imaging. Images were acquired for RFP, as well as pz fluorescence, after 5, 24, 32 and 48 hours. […] With this remarkable contrast, compound 247 therefore acts as a ‘turn-on’ NIR-fluorescence tumor imager. At the conclusion of the 48 hour experiment, the tumors were excised and processed for antibody staining. Slices were stained for nuclei (DAPI) to determine the localization of pzs within heterogeneous 3-dimensional tumors. […] The important benefit of having the RFP and pz survive tissue processing is noted.

[6] = system: A549 lung carcinoma cells; test: Confocal NIR fluorescence microscopy of cellular uptake, tumor cells; assay type: cell-based; settings: confocal images; compound 247: 50 μM, 24 hr stain
Method: as §2, §1

[7] = Relaxivity (r1) of Gd-pz conjugates; assay type: physicochemical
Method: Dual-mode contrast agents were generated by coupling pz optical agents with gadolinium-based (Gd^3+) MR agents in order to permit co-registration of optical and MR image data. The synthetic versatility of the present pz structure allows a variety of strategies for attaching multiple MR imaging agents, for example, Gd^3+ chelates, to the pz structure. […] The relaxivity of a Gd^3+ chelate attached to a pz ranges from about 10 to about 14 mM-1s-1/Gd (Table 1).
In the preparation of Gd-pzs, ‘click’ chemistry was used to append 4 and 8 Gd^3+ chelates to an M[pz(A2; B2)] pz, leading to the Gd8-Mpz conjugate (M=Zn, Cu) shown above, and analogous Gd-4-Mpz conjugates having one chelate per pz ‘arm’. […] This is significant because the higher the observed relaxivity of the conjugate, the greater its efficacy as an in vivo MR contrast agent. Importantly, these conjugates are suitable as dual-mode contrast agents because the presence of as many as eight Gd agents has no significant influence on the pz luminescence for the M=Zn complex. In addition, the pz-Gd conjugates are water soluble and can be administered to rodents without the addition of DMSO.

CO[C@]1(C)Oc2c(c3nc4nc(nc5[nH]c(nc6nc(nc2[nH]3)-c2c(OC(C)C)ccc(OC(C)C)c2-6)c2c5O[C@@](C)(OC)[C@](C)(OC)O2)-c2c(OC(C)C)ccc(OC(C)C)c2-4)O[C@@]1(C)OC [Compound 247]
Toxicity to non-tumorigenic cells (MTT) [1]: non-toxic | Toxicity to tumor cells (MTT) (A549 tumor cells): mildly toxic | Uptake into WI38 VA13 cells (NIR fluorescence) [2]: lesser uptake | Accumulation of pz in tumor cells [3]: accumulation | Tumor cell viability [3]: decrease | pz fluorescence location after 4 hours ([4]; 20 nmol i.v. tail vein, 4 hours): seen in the liver | pz fluorescence location after 24 hours ([4]; 20 nmol i.v. tail vein, 24 hours): highly localized in the mouse tibia tumors | Red fluorescence location in excised legs ([4]; 20 nmol, excised legs without skin and muscle, overlay with GFP): localized in the tumors | Retention in tumor-free tibia ([4]; mouse 3 without tumor): not non-specifically retained in the bones | Time until pz fluorescence detectable in tumor ([5]; 20 nmol i.v. in 7.5% DMSO): ≤ 5 h | pz fluorescence intensity in tumor over time ([5]; 20 nmol i.v., over the 48 hour experiment): increased dramatically | pz fluorescence in other organs or tissues ([5]; 20 nmol i.v., up to 48 hours): no pz fluorescence in other mouse organs or tissues | Accumulation in MDA-231 tumors in vivo ([5]; 20 nmol tail vein, 5 to 48 hours): accumulates over time | Localization within excised tumor sections ([5]; tumors excised at 48 hours, DAPI-stained slices): precise colocalization of compound 247 with the tumor cytosol | Uptake/accumulation in A549 lung carcinoma cells (NIR fluorescence) [6]: excellent uptake

O=C([O-])CN1CCN(CC(=O)[O-])CCN(CC(=O)O)CCN(CC(=O)[O-])CC1.[Gd+3] [Gd-DOTA, gadolinium tetrazacyclododecanetetraacetic acid]
Relaxivity r1/Gd ([7]; per Gd): 3.2 mM⁻¹ s⁻¹ | Relaxivity r1 (molecular relaxivity) ([7]; per molecule): 3.2 mM⁻¹ s⁻¹
